The target of experiment [1] is T1, Sodium-dependent noradrenaline transporter (Homo sapiens, UniProt P23975). Kind of experiment: Inhibition of NET at 1 uM.
The target in experiment [2] is T1, Sodium-dependent noradrenaline transporter. Briefly: Inhibition of NET.
Experiment [3] concerns the target Sodium-dependent serotonin transporter (Homo sapiens, UniProt P31645). Briefly: Inhibition of human SERT.
The target of experiment [4] is T2, Sodium-dependent dopamine transporter (Homo sapiens, UniProt Q01959). Briefly: Inhibition of DAT at 1 uM.
The target in experiment [5] is T2, Sodium-dependent dopamine transporter. Kind of experiment: Inhibition of DAT.

T1 sequence (P23975 whole entry): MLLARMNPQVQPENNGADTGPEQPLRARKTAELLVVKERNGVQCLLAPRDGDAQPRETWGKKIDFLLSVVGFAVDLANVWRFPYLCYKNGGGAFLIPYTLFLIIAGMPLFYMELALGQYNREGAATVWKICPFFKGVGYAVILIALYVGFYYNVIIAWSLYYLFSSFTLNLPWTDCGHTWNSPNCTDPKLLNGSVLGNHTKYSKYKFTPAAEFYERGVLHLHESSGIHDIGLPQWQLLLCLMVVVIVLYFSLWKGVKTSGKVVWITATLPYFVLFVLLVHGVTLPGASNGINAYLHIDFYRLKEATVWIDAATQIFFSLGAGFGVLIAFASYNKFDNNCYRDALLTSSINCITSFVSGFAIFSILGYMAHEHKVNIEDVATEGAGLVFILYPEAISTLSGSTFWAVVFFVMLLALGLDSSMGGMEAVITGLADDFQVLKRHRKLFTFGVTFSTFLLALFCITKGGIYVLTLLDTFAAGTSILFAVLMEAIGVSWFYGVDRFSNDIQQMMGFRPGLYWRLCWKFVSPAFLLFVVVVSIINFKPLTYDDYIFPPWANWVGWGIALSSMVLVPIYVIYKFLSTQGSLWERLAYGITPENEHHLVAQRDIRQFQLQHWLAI
T2 sequence (Q01959 whole entry): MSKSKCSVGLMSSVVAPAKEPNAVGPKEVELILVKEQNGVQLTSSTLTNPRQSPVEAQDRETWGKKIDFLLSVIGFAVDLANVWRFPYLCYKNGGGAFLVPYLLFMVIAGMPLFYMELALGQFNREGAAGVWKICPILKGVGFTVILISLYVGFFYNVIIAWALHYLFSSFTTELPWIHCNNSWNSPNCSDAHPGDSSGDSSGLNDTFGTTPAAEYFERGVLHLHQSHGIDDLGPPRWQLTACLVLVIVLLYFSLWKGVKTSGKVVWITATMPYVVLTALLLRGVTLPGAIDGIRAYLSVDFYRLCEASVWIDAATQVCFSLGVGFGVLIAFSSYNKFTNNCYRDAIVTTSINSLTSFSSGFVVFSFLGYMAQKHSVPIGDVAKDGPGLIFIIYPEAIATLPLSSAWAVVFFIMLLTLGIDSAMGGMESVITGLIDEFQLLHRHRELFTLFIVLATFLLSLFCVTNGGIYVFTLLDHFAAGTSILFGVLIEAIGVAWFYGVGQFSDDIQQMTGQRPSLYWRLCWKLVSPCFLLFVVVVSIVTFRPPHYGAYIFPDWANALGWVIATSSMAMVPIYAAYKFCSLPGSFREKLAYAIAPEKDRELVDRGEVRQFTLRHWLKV
Sequence of Sodium-dependent serotonin transporter (P31645 whole entry): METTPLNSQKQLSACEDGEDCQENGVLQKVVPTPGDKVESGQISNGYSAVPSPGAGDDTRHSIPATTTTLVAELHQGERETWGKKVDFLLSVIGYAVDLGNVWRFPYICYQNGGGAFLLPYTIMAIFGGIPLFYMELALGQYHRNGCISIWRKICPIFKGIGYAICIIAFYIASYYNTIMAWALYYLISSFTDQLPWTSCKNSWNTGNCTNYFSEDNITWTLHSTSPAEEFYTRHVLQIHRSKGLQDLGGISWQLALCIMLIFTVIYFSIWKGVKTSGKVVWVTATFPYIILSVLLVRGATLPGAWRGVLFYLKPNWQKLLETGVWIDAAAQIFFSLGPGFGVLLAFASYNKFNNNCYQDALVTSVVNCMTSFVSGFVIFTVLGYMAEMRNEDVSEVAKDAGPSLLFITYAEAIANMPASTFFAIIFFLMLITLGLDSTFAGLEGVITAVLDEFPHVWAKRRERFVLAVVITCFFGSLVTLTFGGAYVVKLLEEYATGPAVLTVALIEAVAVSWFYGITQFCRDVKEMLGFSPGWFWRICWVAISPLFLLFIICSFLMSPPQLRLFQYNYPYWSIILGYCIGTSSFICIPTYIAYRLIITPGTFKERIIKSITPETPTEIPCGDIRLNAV

With `CN(C)CC1CC1c1cccc2c(C#N)cccc12` (stereo unspecified), the inhibition is 25% in experiment [1] and 9.5% in experiment [4]. Also, the IC50 in experiment [2] came out at 39 µM; in experiment [3], 48 nM; in experiment [5], 12 µM.

Turning to `CCN(CC)CC1CC1c1cccc2cc(C#N)ccc12` (stereo unspecified), in experiment [3], the IC50 worked out at 67 nM.

Take `CN(C)C[C@H]1C[C@@H]1c1c[nH]c2ccc(C#N)cc12`: in experiment [3], the IC50 was determined as 0.48 nM.

As to `CCNCC1CC1c1cccc2cc(C#N)ccc12` (stereo unspecified), half-maximal inhibition in experiment [3] (IC50) required 37 nM.

As to `CN(C)CC1CC1c1c[nH]c2ccc(C#N)cc12` (racemic), in experiment [3], the half-inhibitory concentration (IC50) was found to be 1.1 nM.

In experiment [3], `CN(C)CC1CC1c1csc2ccccc12` (stereo in doubt; (+)-6) [listing 1 of 2 here] showed an IC50 of 55 nM.

Consider `CN(Cc1ccccc1)CC1CC1c1cccc2cc(C#N)ccc12` (stereo unspecified), for which, in experiment [3], the IC50 was 16 nM.

Take `CN(C)CC1CC1c1ccc2ccc(C#N)cc2c1` (racemic): the figures for the inhibition in experiment [1] and in experiment [4] were 68% and 83%, respectively. Further, the values for the half-maximal inhibitory concentration (IC50) in experiment [2], in experiment [3] and in experiment [5] were 0.71 µM, 83 nM and 0.26 µM, respectively.

`CN(C)CC1CC1c1cncc2ccccc12` (stereo unspecified) registered an IC50 in experiment [3] of over 1000 nM.

Regarding `CN(C)CC1CC1c1cccc2ccccc12` (single isomer, unassigned; (+)) [listing 1 of 2 here], the inhibition in experiment [1] came out at 2.3%; in experiment [4], 12%.

Take `CN(C)CC1CC1c1ccc2cc(C#N)ccc2c1` (stereo unspecified): the inhibition in experiment [1] stood at 69%; in experiment [4] it was 41%. Moreover, the results for the IC50 in experiment [2], in experiment [3] and in experiment [5] were 0.56 µM, 13 nM and 1.1 µM, respectively.

Turning to `CN(C)CC1CC1c1ccc2ccccc2c1` (single isomer, unassigned; (+)) [listing 1 of 2 here], the figures for the IC50 in experiment [2], in experiment [3] and in experiment [5] were 8.7 µM, 8.6 nM and 2.4 µM, respectively.

As for `CN(C)CC1CC1c1csc2ccccc12` (stereo in doubt; (+)-6) [listing 2 of 2 here], the inhibition in experiment [1] is 13%; in experiment [4], 24%.

Consider `CN(C)CC1CC1c1ccc2ccccc2c1` (single isomer, unassigned; (+)) [listing 2 of 2 here], for which the inhibition came out at 18% in experiment [1] and 31% in experiment [4].

Regarding `CCN(CC)CC1CC1c1cccc2ccccc12` (stereo unspecified), the IC50 in experiment [3] was found to be 120 nM.

In experiment [3], `CN(C)CC1CC1c1cnc2ccccn12` (racemic) returned an IC50 of over 1000 nM.

For `CN(C)CC1CC1c1ccc2ccccc2c1` (single isomer, unassigned; (-)), in experiment [3], the IC50 was 140 nM.

As to `CCN(CC)CC1CC1c1ccc2ccccc2c1` (stereo unspecified), the IC50 in experiment [3] is 550 nM.

With `N#Cc1ccc2c(C3CC3CN3CCCC3)cccc2c1` (stereo unspecified), half-maximal inhibition in experiment [3] (IC50) required 51 nM.

Take `CN(C)CC1CC1c1cccc2ccccc12` (single isomer, unassigned; (+)) [listing 2 of 2 here]: the IC50 in experiment [2] stood at 68 µM; in experiment [3], 18 nM; in experiment [5] it was 33 µM.

In experiment [3], `CNCC1CC1c1cccc2cc(C#N)ccc12` (stereo unspecified) gave an IC50 of 17 nM.

On to `CN(C)CC1CC1c1cccc2ccccc12` (single isomer, unassigned; (-)), for which, in experiment [3], 170 nM corresponded to half-maximal inhibition (IC50).

`CN(C)C[C@H]1C[C@@H]1c1c[nH]c2ccccc12` (racemic) returned an IC50 in experiment [3] of 99 nM.

Turning to `CN(C)CC1CC1c1n[nH]c2ccc(C#N)cc12` (racemic), the inhibition in experiment [1] is -4.9%; in experiment [4], 0%. Besides, the results for the IC50 in experiment [2], in experiment [3] and in experiment [5] were over 100 µM, 71 nM and 44 µM, respectively.

The compound `CNCC1CC1c1ccc2ccccc2c1` (stereo unspecified) returned an IC50 in experiment [3] of 52 nM.

Regarding `CN(C)CC1CC1c1cccc2ccccc12` (stereo in doubt; 9b), the IC50 in experiment [3] came to 15 nM.

Compound `CNCC1CC1c1cccc2ccccc12` (stereo unspecified) returned an IC50 in experiment [3] of 89 nM.

The compound `CN(C)CC1CC1c1csc2ccccc12` (stereo in doubt; 6) had an IC50 in experiment [3] of 25 nM.

`CN(C)CC1CC1c1ccc2cc(C#N)c(C#N)cc2c1` (stereo unspecified): the inhibition in experiment [1] amounted to 82%; in experiment [4], 80%. The compound also returned an IC50 in experiment [3] of 5.9 nM.

The compound `CN(C)CC1CC1c1csc2ccccc12` (stereo in doubt; (-)-6) came in with an IC50 in experiment [3] of 150 nM.

As for `CCN(C)CC1CC1c1ccc2ccccc2c1` (stereo unspecified), it took 310 nM to reach half-maximal inhibition in experiment [3] (IC50).

Regarding `CN(C)CC1CC1c1cccc2cc(C#N)ccc12` (stereo unspecified), the inhibition in experiment [1] turned out to be 20%; in experiment [4], 16%. Also, the half-inhibitory concentration (IC50) was 19 µM in experiment [2], 4.1 nM in experiment [3] and 8.7 µM in experiment [5].

In experiment [3], `CN(C)CC1CC1c1cnc2ccccc2c1` (stereo unspecified) had an IC50 of 130 nM.

In experiment [3], `CN(C)CC1CC1c1ccc2ccccc2c1` (stereo in doubt; 10b) gave an IC50 of 8.6 nM.

The compound `CN(C)CC1CC1c1c[nH]c2ncccc12` (racemic) showed an IC50 in experiment [3] of 410 nM.

Regarding `CCN(C)CC1CC1c1cccc2ccccc12` (stereo unspecified), the 50% inhibitory concentration (IC50) in experiment [3] is 58 nM.

In turn, `CN(C)C[C@H]1C[C@@H]1c1c[nH]c2ccc(F)cc12` (racemic) yielded an IC50 in experiment [3] of 4.1 nM.

These data come from ChEMBL document CHEMBL1139814, “Conformationally restricted homotryptamines. Part 4: Heterocyclic and naphthyl analogs of a potent selective serotonin reuptake inhibitor” (Bioorg Med Chem Lett, 2007).
